Assays:
Type in all cases: ADME
[1] = The drug is tested on Streptococcus sanguinis strain: DSM20567 for biotransformation under anaerobic condition. The drug concentrations were measured over 6 timepoints collected between 0 and 12 hours of incubation by liquid-chromatography-coupled mass spectrometry (LC–MS); set-up: dose 5 uM, timepoint 0, 1.5, 3, 6, 9, 12 hours; details: 5 µM
[2] = The drug is tested on Gemella morbillorum strain: DSM20572 for biotransformation under anaerobic condition. The drug concentrations were measured over 6 timepoints collected between 0 and 12 hours of incubation by liquid-chromatography-coupled mass spectrometry (LC–MS); set-up: dose 5 uM, timepoint 0, 1.5, 3, 6, 9, 12 hours; details: 5 µM
[3] = The drug is tested on the gut metagenome community of A-10 with ENA study accession number: PRJEB31790 for biotransformation under microaerobic condition. The drug concentrations were measured over 7 timepoints collected between 0 and 12 hours of incubation by liquid-chromatography-coupled mass spectrometry (LC–MS); set-up: dose 5 uM, timepoint 0, 0.75, 1.5, 3, 6, 9, 12 hours; details: 5 µM
[4] = The drug is tested on Bifidobacterium longum strain: DSM20088 for biotransformation under anaerobic condition. The drug concentrations were measured over 6 timepoints collected between 0 and 12 hours of incubation by liquid-chromatography-coupled mass spectrometry (LC–MS); set-up: dose 5 uM, timepoint 0, 1.5, 3, 6, 9, 12 hours; details: 5 µM
[5] = The drug is tested on Lactobacillus fermentum strain: DSM20052 for biotransformation under microaerobic condition. The drug concentrations were measured over 6 timepoints collected between 0 and 12 hours of incubation by liquid-chromatography-coupled mass spectrometry (LC–MS); set-up: dose 5 uM, timepoint 0, 1.5, 3, 6, 9, 12 hours; details: limosilactobacillus fermentum, 5 µM
[6] = The drug is tested on the gut metagenome community of T-02 with ENA study accession number: PRJEB31790 for biotransformation under microaerobic condition. The drug concentrations were measured over 7 timepoints collected between 0 and 12 hours of incubation by liquid-chromatography-coupled mass spectrometry (LC–MS); set-up: dose 5 uM, timepoint 0, 0.75, 1.5, 3, 6, 9, 12 hours; details: 5 µM
[7] = The drug is tested on the gut metagenome community of A-05 with ENA study accession number: PRJEB31790 for biotransformation under anaerobic condition. The drug concentrations were measured over 7 timepoints collected between 0 and 12 hours of incubation by liquid-chromatography-coupled mass spectrometry (LC–MS); set-up: dose 5 uM, timepoint 0, 0.75, 1.5, 3, 6, 9, 12 hours; details: 5 µM
[8] = The drug is tested on Capnocytophaga ochracea strain: DSM7271 for biotransformation under anaerobic condition. The drug concentrations were measured over 6 timepoints collected between 0 and 12 hours of incubation by liquid-chromatography-coupled mass spectrometry (LC–MS); set-up: dose 5 uM, timepoint 0, 1.5, 3, 6, 9, 12 hours; details: 5 µM
[9] = The drug is tested on the gut metagenome community of T-01 with ENA study accession number: PRJEB31790 for biotransformation under microaerobic condition. The drug concentrations were measured over 7 timepoints collected between 0 and 12 hours of incubation by liquid-chromatography-coupled mass spectrometry (LC–MS); set-up: dose 5 uM, timepoint 0, 0.75, 1.5, 3, 6, 9, 12 hours; details: 5 µM
[10] = The drug is tested on Dorea formicigenerans strain: DSM3992 for biotransformation under anaerobic condition. The drug concentrations were measured over 6 timepoints collected between 0 and 12 hours of incubation by liquid-chromatography-coupled mass spectrometry (LC–MS); set-up: dose 5 uM, timepoint 0, 1.5, 3, 6, 9, 12 hours; details: 5 µM
[11] = The drug is tested on the gut metagenome community of A-09 with ENA study accession number: PRJEB31790 for biotransformation under microaerobic condition. The drug concentrations were measured over 7 timepoints collected between 0 and 12 hours of incubation by liquid-chromatography-coupled mass spectrometry (LC–MS); set-up: dose 5 uM, timepoint 0, 0.75, 1.5, 3, 6, 9, 12 hours; details: 5 µM
[12] = The drug is tested on Parabacteroides distasonis strain: DSM20701 for biotransformation under anaerobic condition. The drug concentrations were measured over 6 timepoints collected between 0 and 12 hours of incubation by liquid-chromatography-coupled mass spectrometry (LC–MS); set-up: dose 5 uM, timepoint 0, 1.5, 3, 6, 9, 12 hours; details: 5 µM
[13] = The drug is tested on Odoribacter splanchnicus strain: DSM20712 for biotransformation under anaerobic condition. The drug concentrations were measured over 6 timepoints collected between 0 and 12 hours of incubation by liquid-chromatography-coupled mass spectrometry (LC–MS); set-up: dose 5 uM, timepoint 0, 1.5, 3, 6, 9, 12 hours; details: 5 µM
[14] = The drug is tested on Escherichia coli strain: DSM27469 for biotransformation under anaerobic condition. The drug concentrations were measured over 6 timepoints collected between 0 and 12 hours of incubation by liquid-chromatography-coupled mass spectrometry (LC–MS); set-up: dose 5 uM, timepoint 0, 1.5, 3, 6, 9, 12 hours; details: 5 µM
[15] = The drug is tested on Parabacteroides merdae strain: DSM19495 for biotransformation under anaerobic condition. The drug concentrations were measured over 6 timepoints collected between 0 and 12 hours of incubation by liquid-chromatography-coupled mass spectrometry (LC–MS); set-up: dose 5 uM, timepoint 0, 1.5, 3, 6, 9, 12 hours; details: 5 µM
[16] = The drug is tested on the gut metagenome community of A-01 with ENA study accession number: PRJEB31790 for biotransformation under microaerobic condition. The drug concentrations were measured over 7 timepoints collected between 0 and 12 hours of incubation by liquid-chromatography-coupled mass spectrometry (LC–MS); set-up: dose 5 uM, timepoint 0, 0.75, 1.5, 3, 6, 9, 12 hours; details: 5 µM
[17] = The drug is tested on the gut metagenome community of T-03 with ENA study accession number: PRJEB31790 for biotransformation under anaerobic condition. The drug concentrations were measured over 7 timepoints collected between 0 and 12 hours of incubation by liquid-chromatography-coupled mass spectrometry (LC–MS); set-up: dose 5 uM, timepoint 0, 0.75, 1.5, 3, 6, 9, 12 hours; details: 5 µM
[18] = The drug is tested on Gemella haemolysans strain: DSM107751 for biotransformation under anaerobic condition. The drug concentrations were measured over 6 timepoints collected between 0 and 12 hours of incubation by liquid-chromatography-coupled mass spectrometry (LC–MS); set-up: dose 5 uM, timepoint 0, 1.5, 3, 6, 9, 12 hours; details: 5 µM
[19] = The drug is tested on Lactobacillus fermentum strain: DSM20052 for biotransformation under anaerobic condition. The drug concentrations were measured over 6 timepoints collected between 0 and 12 hours of incubation by liquid-chromatography-coupled mass spectrometry (LC–MS); set-up: dose 5 uM, timepoint 0, 1.5, 3, 6, 9, 12 hours; details: limosilactobacillus fermentum, 5 µM
[20] = The drug is tested on Bifidobacterium longum strain: DSM20088 for biotransformation under microaerobic condition. The drug concentrations were measured over 6 timepoints collected between 0 and 12 hours of incubation by liquid-chromatography-coupled mass spectrometry (LC–MS); set-up: dose 5 uM, timepoint 0, 1.5, 3, 6, 9, 12 hours; details: 5 µM
[21] = The drug is tested on Prevotella copri strain: DSM18205 for biotransformation under anaerobic condition. The drug concentrations were measured over 6 timepoints collected between 0 and 12 hours of incubation by liquid-chromatography-coupled mass spectrometry (LC–MS); set-up: dose 5 uM, timepoint 0, 1.5, 3, 6, 9, 12 hours; details: segatella copri, 5 µM
[22] = The drug is tested on the gut metagenome community of A-09 with ENA study accession number: PRJEB31790 for biotransformation under anaerobic condition. The drug concentrations were measured over 7 timepoints collected between 0 and 12 hours of incubation by liquid-chromatography-coupled mass spectrometry (LC–MS); set-up: dose 5 uM, timepoint 0, 0.75, 1.5, 3, 6, 9, 12 hours; details: 5 µM
[23] = The drug is tested on the gut metagenome community of P-03 with ENA study accession number: PRJEB31790 for biotransformation under anaerobic condition. The drug concentrations were measured over 7 timepoints collected between 0 and 12 hours of incubation by liquid-chromatography-coupled mass spectrometry (LC–MS); set-up: dose 5 uM, timepoint 0, 0.75, 1.5, 3, 6, 9, 12 hours; details: 5 µM
[24] = The drug is tested on the gut metagenome community of A-10 with ENA study accession number: PRJEB31790 for biotransformation under anaerobic condition. The drug concentrations were measured over 7 timepoints collected between 0 and 12 hours of incubation by liquid-chromatography-coupled mass spectrometry (LC–MS); set-up: dose 5 uM, timepoint 0, 0.75, 1.5, 3, 6, 9, 12 hours; details: 5 µM
[25] = The drug is tested on Escherichia coli strain: DSM27469 for biotransformation under microaerobic condition. The drug concentrations were measured over 6 timepoints collected between 0 and 12 hours of incubation by liquid-chromatography-coupled mass spectrometry (LC–MS); set-up: dose 5 uM, timepoint 0, 1.5, 3, 6, 9, 12 hours; details: 5 µM
[26] = The drug is tested on Bacteroides ovatus strain: ATCC 8483 for biotransformation under anaerobic condition. The drug concentrations were measured over 6 timepoints collected between 0 and 12 hours of incubation by liquid-chromatography-coupled mass spectrometry (LC–MS); set-up: dose 5 uM, timepoint 0, 1.5, 3, 6, 9, 12 hours; details: 5 µM

Compound	Bacterial Biotransformation [1]	Bacterial Biotransformation [2]	Bacterial Biotransformation [3]	Bacterial Biotransformation [4]	Bacterial Biotransformation [5]	Bacterial Biotransformation [6]	Bacterial Biotransformation [7]	Bacterial Biotransformation [8]	Bacterial Biotransformation [9]	Bacterial Biotransformation [10]	Bacterial Biotransformation [11]	Bacterial Biotransformation [12]	Bacterial Biotransformation [13]	Bacterial Biotransformation [14]	Bacterial Biotransformation [15]	Bacterial Biotransformation [16]	Bacterial Biotransformation [17]	Bacterial Biotransformation [18]	Bacterial Biotransformation [19]	Bacterial Biotransformation [20]	also measured
NS(=O)(=O)c1cc(C(=O)O)c(NCc2ccco2)cc1Cl [FUROSEMIDE]	Compound NOT metabolized	Compound NOT metabolized	Compound NOT metabolized	Compound NOT metabolized	Compound NOT metabolized	Compound NOT metabolized	Compound NOT metabolized	Compound NOT metabolized	Compound NOT metabolized	Compound NOT metabolized	Compound NOT metabolized	Compound NOT metabolized	Compound NOT metabolized	Compound NOT metabolized	Compound NOT metabolized	Compound NOT metabolized	Compound NOT metabolized	Compound NOT metabolized	Compound NOT metabolized	Compound NOT metabolized	Bacterial Biotransformation [21]: Compound NOT metabolized; Bacterial Biotransformation [22]: Compound NOT metabolized; Bacterial Biotransformation [23]: Compound NOT metabolized; Bacterial Biotransformation [24]: Compound NOT metabolized; Bacterial Biotransformation [25]: Compound NOT metabolized; Bacterial Biotransformation [26]: Compound NOT metabolized
C[C@]12CCC(=O)C=C1CC[C@@H]1[C@@H]2[C@@H](O)C[C@@]2(C)[C@H]1CC[C@]2(O)C(=O)CO [HYDROCORTISONE]	Compound NOT metabolized	Compound NOT metabolized	Compound metabolized	Compound NOT metabolized	Compound NOT metabolized	Compound metabolized	Compound metabolized	Compound NOT metabolized	Compound metabolized	Compound NOT metabolized	Compound metabolized	Compound NOT metabolized	Compound NOT metabolized	Compound NOT metabolized	Compound NOT metabolized	Compound metabolized	Compound NOT metabolized	Compound NOT metabolized	Compound NOT metabolized	Compound NOT metabolized	Bacterial Biotransformation [21]: Compound NOT metabolized; Bacterial Biotransformation [22]: Compound metabolized; Bacterial Biotransformation [23]: Compound metabolized; Bacterial Biotransformation [24]: Compound metabolized; Bacterial Biotransformation [25]: Compound NOT metabolized; Bacterial Biotransformation [26]: Compound NOT metabolized
CN(Cc1cnc2nc(N)nc(N)c2n1)c1ccc(C(=O)N[C@@H](CCC(=O)O)C(=O)O)cc1 [METHOTREXATE]	Compound NOT metabolized	Compound NOT metabolized	Compound metabolized	Compound NOT metabolized	Compound NOT metabolized	Compound metabolized	Compound NOT metabolized	Compound NOT metabolized	Compound metabolized	Compound NOT metabolized	Compound metabolized	Compound NOT metabolized	Compound NOT metabolized	Compound NOT metabolized	Compound NOT metabolized	Compound NOT metabolized	Compound NOT metabolized	Compound NOT metabolized	Compound NOT metabolized	Compound NOT metabolized	Bacterial Biotransformation [21]: Compound NOT metabolized; Bacterial Biotransformation [22]: Compound metabolized; Bacterial Biotransformation [23]: Compound metabolized; Bacterial Biotransformation [24]: Compound metabolized; Bacterial Biotransformation [25]: Compound NOT metabolized; Bacterial Biotransformation [26]: Compound NOT metabolized

— ChEMBL document CHEMBL5724806, “Unraveling interindividual differences and functional consequences of gut microbial metabolism of immunosuppressants” (2024)
